Reference: patent US20090264384A1, “INDOLE, BENZIMIDAZOLE, AND BENZOLACTAM BORONIC ACID COMPOUNDS, ANALOGS THEREOF AND METHODS OF USE THEREOF” (Nuada, Inc., priority 2004, published 2009)
Values joined by “and” are separate entries in the source; they are usually repeats but may differ in a detail not shown here. Equal entries are not always repeated.

Legend:
[1] = tested on: TNF-α production by PMBC; assay: Inhibition of TNF-α Production By Peripheral Blood Monocyte Cells (PMBC), LPS stimulated; format: cell-based; conditions: 1 ug/mL LPS, 24 hours
Procedure: PMBC in RPMI 1640 Cell Culture Medium (containing 1% Penicillin and 1% Streptomycin) are aliquoted into 96-well plates at 5×10^5 cells/well and pre-incubated with test compounds for 30 minutes at 37° C. After incubation, 1 ug/mL LPS is added to each well to stimulate TNF-α production and the plate is incubated for 24 hours at 37° C. After incubation, the supernatant is removed and the TNF-α secreted is quantified using EIA detection kits commercially available from R&D Systems (USA). The results from this assay are expressed as percent inhibition of control activity, with the control being stimulated wells with no test compound. Dexamethasone is used as a standard reference compound in the assay and is tested with each experiment. All test compounds are diluted from 10 mM stock solutions in 100% DMSO.

[2] = tested on: arachidonic acid-induced ear edema; assay: Arachidonic acid-induced mouse ear edema model; format: in vivo; conditions: for inhibition of the irritant-induced ear edema: thirty minutes prior to arachidonic acid challenge; for Change in Ear Weight (mg) Average / % Inhibition / Ear Weight (mg) Left (−AA) / Ear Weight (mg) Right (+AA): topical; for % Inhibition: change in ear weight vs vehicle; for Ear Weight (mg) Left (−AA) / Ear Weight (mg) Right (+AA): individual mice
Procedure: This example was carried out in male BALB/c mice. 42 BALB/c mice (Harlan Sprague-Dawley, Inc., male, PO # 452036, R #2449, 5-6 weeks) were received, individually examined, and housed in four cages of ten mice each and one cage containing two mice. Each animal was in apparent good health: no clinical signs of disease or distress. The animals were placed in quarantine with daily inspections.
(§1) An aliquot of a representative presently disclosed compound was stored in an amber glass vial and stored at 25° C. […] 0.1 mL of this solution was diluted into 0.9 mL 190 proof alcohol to prepare a 0.5% solution.
30 mg indomethacin (Sigma Cat. I-7378, lot 60K0745) was dissolved in 5 ml 0.1 M NaHCO3 to prepare a 6 mg/mL solution.
48.9 μL arachidonic acid (Sigma Cat. A-9673. lot 057K1620) was dissolved in 450 μL 190 proof alcohol to prepare a 100 mg/mL solution.
The mice were numbered and weighed. The mice in Groups 1, 3, 4 were topically treated on both sides of both ears with either 25 μL 190 proof alcohol, 5% 5-(2-(4-Methoxyphenyl)-1H-benzo[d]imidazol-1-yl)pentylboronic acid, or 0.5% 5-(2-(4-Methoxyphenyl)-1H-benzo[d]imidazol-1-yl)pentylboronic acid. The mice in Group 2 were injected intraperitoneally with 5 mL/kg indomethacin (30 mg/kg). Thirty minutes after 190 proof alcohol, indomethacin, or 5-(2-(4-Methoxyphenyl)-1H-benzo[d]imidazol-1-yl)pentylboronic acid application/administration, 5 μL of the arachidonic acid solution was applied to the dorsal and ventral sides of the right ear. The contralateral ear was treated with 190 proof alcohol. One hour after alcohol/arachidonic acid application, the mice were euthanized, the ears removed and the ear weights recorded.
Significance (p-value) was calculated using Student's T-test. The effect of prophylactic topical treatment with a representative presently disclosed compound on arachidonic acid-induced murine ear edema is shown in FIG. 16.

[3] = target: T1, phosphodiesterase (Homo sapiens, UniProt O76074); assay: In vitro phosphodiesterase enzyme assays of Example 39 (IC50 determination); format: biochemical
T1 construct: IC50; other: Phosphodiesterase 5 (h); nH; other: Hill coefficient, Phosphodiesterase 5 (h)
Procedure: (§2) The in vitro pharmacology of 5-(2-(4-Methoxyphenyl)-1H-benzo[d]imidazol-1-yl)pentylboronic acid was determined with several enzymes as described in Table 19 using the experimental conditions of Table 18.
(§3) Results. The corresponding inhibition curves were also determined (data not shown). Each is within accepted limits of the historic average ±0.5 log units. Table 21 contains the mean experimental values for the […] as performed as described above.

[4] = target: T2, phosphodiesterase (Bos taurus, UniProt P11541+P23439); assay: as above; format: biochemical; conditions: Hill coefficient, Phosphodiesterase 6
T2 construct: IC50; other: Phosphodiesterase 6 (bovine retina); nH; other: Hill coefficient, Phosphodiesterase 6
Procedure: as §2, §3

[5] = target: T3, phosphodiesterase (Homo sapiens, UniProt O00408); assay: as above; format: biochemical
T3 construct: IC50; other: Phosphodiesterase 2 (h); nH; other: Hill coefficient, Phosphodiesterase 2 (h)
Procedure: as §2, §3

[6] = target: T4, phosphodiesterase; assay: as above; format: biochemical; conditions: Phosphodiesterase 4 (h)
T4 construct: IC50; other: Phosphodiesterase 4 (h); nH; other: Hill coefficient, Phosphodiesterase 4 (h)
Procedure: as §2, §3

[7] = Solubility when preparing the topical solution; format: physicochemical
Procedure: as §1

[8] = target: hERG (Homo sapiens, UniProt Q12809); assay: ADME-Tox: QT Prolongation, HERG (patch-clamp); conditions: human, HEK-293 cells stably expressing HERG
[9] = target: HERG channel (Homo sapiens, UniProt Q12809); assay: ADME-Tox: QT Prolongation, HERG (patch-clamp)
HERG channel, sequence (Q12809 whole entry): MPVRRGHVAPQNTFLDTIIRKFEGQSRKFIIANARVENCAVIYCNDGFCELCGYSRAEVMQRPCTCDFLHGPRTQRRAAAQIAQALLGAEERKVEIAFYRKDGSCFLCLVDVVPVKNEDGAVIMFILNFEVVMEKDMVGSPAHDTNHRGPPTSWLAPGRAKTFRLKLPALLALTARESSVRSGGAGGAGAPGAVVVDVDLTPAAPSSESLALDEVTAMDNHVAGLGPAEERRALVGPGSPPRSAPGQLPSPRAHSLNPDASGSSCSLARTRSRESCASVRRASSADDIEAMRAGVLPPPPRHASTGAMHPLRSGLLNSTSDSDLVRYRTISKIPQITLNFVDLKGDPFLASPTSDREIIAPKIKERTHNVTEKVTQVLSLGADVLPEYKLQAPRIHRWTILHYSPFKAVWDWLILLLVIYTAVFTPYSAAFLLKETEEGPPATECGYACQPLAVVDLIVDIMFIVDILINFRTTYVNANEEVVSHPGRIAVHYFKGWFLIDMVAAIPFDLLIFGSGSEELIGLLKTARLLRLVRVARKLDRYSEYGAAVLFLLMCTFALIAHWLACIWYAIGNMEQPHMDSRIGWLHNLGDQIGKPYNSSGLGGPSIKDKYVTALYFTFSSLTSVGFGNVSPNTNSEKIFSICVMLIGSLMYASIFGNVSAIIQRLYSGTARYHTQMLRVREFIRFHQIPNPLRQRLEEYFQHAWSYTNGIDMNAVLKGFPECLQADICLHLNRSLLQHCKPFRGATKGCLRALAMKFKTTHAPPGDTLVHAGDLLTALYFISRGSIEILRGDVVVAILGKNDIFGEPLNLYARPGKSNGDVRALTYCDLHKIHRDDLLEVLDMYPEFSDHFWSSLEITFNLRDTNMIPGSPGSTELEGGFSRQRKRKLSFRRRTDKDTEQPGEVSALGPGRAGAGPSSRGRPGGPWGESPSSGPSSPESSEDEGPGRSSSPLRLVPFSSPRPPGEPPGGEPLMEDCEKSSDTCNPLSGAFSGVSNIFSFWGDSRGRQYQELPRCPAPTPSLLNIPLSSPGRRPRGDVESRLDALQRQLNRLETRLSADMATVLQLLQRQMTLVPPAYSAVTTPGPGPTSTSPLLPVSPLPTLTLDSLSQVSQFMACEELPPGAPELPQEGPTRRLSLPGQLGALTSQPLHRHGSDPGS

T3 sequence (O00408 whole entry): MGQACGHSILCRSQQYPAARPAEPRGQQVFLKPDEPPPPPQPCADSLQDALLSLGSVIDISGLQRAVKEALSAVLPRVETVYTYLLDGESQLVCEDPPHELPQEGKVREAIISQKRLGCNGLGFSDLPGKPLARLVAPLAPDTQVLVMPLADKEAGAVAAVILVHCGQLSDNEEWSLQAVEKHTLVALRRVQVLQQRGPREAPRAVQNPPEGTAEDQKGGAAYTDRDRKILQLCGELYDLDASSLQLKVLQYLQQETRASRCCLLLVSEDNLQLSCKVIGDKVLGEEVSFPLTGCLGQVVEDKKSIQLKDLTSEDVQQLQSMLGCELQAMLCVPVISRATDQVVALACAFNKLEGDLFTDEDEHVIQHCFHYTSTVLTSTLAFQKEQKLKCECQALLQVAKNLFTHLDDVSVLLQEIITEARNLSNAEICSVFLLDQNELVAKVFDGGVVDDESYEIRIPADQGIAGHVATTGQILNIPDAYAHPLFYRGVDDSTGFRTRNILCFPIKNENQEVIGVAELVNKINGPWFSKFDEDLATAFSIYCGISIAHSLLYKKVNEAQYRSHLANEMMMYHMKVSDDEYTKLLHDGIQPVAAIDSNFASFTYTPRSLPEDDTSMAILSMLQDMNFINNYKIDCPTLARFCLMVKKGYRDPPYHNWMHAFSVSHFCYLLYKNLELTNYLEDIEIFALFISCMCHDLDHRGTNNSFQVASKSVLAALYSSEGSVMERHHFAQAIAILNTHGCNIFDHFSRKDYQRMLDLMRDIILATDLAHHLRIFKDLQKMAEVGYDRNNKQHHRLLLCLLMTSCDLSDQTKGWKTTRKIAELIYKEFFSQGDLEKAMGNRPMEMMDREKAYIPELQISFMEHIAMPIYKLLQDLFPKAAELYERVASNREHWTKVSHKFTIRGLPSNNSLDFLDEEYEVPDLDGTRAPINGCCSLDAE
hERG, sequence (Q12809 whole entry): as the sequence (Q12809 whole entry) above
T2 sequence (P11541 2-856): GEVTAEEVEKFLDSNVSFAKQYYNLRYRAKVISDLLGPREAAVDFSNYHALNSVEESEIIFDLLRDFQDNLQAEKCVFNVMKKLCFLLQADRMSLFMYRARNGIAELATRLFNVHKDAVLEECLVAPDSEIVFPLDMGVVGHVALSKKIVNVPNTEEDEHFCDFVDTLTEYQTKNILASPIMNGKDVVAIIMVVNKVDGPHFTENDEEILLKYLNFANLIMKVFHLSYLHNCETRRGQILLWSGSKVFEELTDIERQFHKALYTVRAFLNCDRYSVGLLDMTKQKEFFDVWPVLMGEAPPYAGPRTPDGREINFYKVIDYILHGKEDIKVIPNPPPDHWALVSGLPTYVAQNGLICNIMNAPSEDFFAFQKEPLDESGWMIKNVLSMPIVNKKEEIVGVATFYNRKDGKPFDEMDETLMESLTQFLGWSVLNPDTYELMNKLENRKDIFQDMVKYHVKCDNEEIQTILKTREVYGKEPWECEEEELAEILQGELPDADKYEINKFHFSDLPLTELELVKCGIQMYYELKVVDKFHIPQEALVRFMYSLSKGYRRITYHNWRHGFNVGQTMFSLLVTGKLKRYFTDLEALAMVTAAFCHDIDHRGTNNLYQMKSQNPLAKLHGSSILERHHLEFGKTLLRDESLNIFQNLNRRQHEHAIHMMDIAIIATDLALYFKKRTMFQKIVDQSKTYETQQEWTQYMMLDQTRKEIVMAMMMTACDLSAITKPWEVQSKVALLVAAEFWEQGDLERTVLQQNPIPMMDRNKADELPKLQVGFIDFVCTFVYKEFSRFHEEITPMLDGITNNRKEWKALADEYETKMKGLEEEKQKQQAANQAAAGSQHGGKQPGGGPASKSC
T2 sequence (P23439 2-850): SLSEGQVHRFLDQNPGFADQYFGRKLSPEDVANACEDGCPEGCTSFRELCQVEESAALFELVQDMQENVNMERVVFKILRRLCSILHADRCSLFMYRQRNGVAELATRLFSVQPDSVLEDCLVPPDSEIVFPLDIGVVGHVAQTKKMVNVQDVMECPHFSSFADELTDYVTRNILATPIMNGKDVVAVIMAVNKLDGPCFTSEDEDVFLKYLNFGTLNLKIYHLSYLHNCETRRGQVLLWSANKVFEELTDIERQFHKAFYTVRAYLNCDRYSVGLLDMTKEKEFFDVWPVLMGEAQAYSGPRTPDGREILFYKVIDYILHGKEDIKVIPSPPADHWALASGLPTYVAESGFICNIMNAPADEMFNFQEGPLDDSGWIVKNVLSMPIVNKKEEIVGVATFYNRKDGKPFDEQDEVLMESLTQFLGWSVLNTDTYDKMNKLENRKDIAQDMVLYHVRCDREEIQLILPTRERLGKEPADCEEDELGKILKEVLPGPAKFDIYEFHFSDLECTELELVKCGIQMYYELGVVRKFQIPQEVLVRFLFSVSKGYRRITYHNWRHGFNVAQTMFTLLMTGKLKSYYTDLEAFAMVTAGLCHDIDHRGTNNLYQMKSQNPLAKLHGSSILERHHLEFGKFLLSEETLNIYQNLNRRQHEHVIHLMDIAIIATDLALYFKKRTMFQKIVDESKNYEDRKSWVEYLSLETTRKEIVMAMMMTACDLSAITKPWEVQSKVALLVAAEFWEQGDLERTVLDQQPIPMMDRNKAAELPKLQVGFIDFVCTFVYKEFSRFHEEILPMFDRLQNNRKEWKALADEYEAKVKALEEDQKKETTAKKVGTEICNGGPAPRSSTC
T2 sequence (P04972 whole entry partner): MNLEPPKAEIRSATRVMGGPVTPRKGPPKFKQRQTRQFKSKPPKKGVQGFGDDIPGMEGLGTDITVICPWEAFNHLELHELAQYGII

## COc1ccc(-c2nc3ccccc3n2CCCCCB(O)O)cc1 [Example 7, 5-(2-(4-Methoxyphenyl)-1H-benzo[d]imidazol-1-yl)pentylboronic acid]
[1]
  IC50: 200 nM
[2]; 0.5% solution topical
  inhibition of the irritant-induced ear edema: 12%
[2]; 0.5%
  Change in Ear Weight (mg) Average: 44.1 mg
  % Inhibition: 12.2%
  Ear Weight (mg) Left (−AA): 22 mg (2×) and 20 mg (4×) and 34 mg and 23 mg and 24 mg and 21 mg
  Ear Weight (mg) Right (+AA): 76 mg and 63 mg and 55 mg and 82 mg and 78 mg and 50 mg and 62 mg and 77 mg and 60 mg and 64 mg
[2]; 5% solution topical
  inhibition of the irritant-induced ear edema: 46%
[2]; 5%
  Change in Ear Weight (mg) Average: 26.9 mg
  % Inhibition: 46.4%
  Ear Weight (mg) Left (−AA): 23 mg (3×) and 24 mg (2×) and 22 mg (3×) and 20 mg and 21 mg
  Ear Weight (mg) Right (+AA): 50 mg and 48 mg and 57 mg and 42 mg and 55 mg and 51 mg and 53 mg and 49 mg and 44 mg (2×)
[3]; Hill coefficient, Phosphodiesterase 5(h)
  nH: 0.7
[3]; Phosphodiesterase 5 (h)
  IC50: 960 nM
[4]
  nH: 0.9
[5]; Hill coefficient, Phosphodiesterase 2(h)
  nH: 0.8
[5]; Phosphodiesterase 2 (h)
  IC50: 110 nM
[6]
  IC50: 420 nM
[7]
  solubility in acetone: not soluble in acetone
[8]
  inhibition at 1 µM: 49.7%
[9]; HERG-channel blocker ranking, from 1 μM test (Table 21)
  Potency Ranking: Moderate/High
[9]; general potency ranking system (Roche et al.)
  HERG-channel blocker potency class: moderate/high
